Some results are limits rather than exact numbers.

Broadly, the EC50 is the concentration that produces a half-maximal response. One may read the IC50 as the concentration that inhibits the measured activity by half.

The first test concerns HCV sub-genomic replicon in GS4.3 cells (HuH-7 hepatoma cells). The test is described as follows: Quantitation by ELISA of Neomycin phosphotransferase II (NPTII) in the HCV sub-genomic replicon, GS4.3. Format: cell-based, hepatitis C virus. The following applies: Hepatitis C virus, Huh-7; GS4.3 cells, 72 h incubation, NPTII ELISA; read-out: Replicon EC50. How it is done: The HCV sub-genomic replicon (1377/NS3-3′, accession No. AJ242652), stably maintained in HuH-7 hepatoma cells, was created by Lohmann et al. Science 285: 110-113 (1999). The replicon-containing cell culture, designated GS4.3, was obtained from Dr. Christoph Seeger of the Institute for Cancer Research, Fox Chase Cancer Center, Philadelphia, Pa.
GS4.3 cells were maintained at 37° C., 5% CO2, in DMEM (Gibco 11965-092) supplemented with L-glutamine 200 mM (100×) (Gibco25030-081), non-essential amino acids (NEAA) (Biowhittaker 13-114E), heat-inactivated (HI) Fetal Bovine Serum (FBS) (Hyclone SH3007.03) and 750 μg/ml geneticin (G418) (Gibco 10131-035). Cells were sub-divided 1:3 or 4 every 2-3 days.
24 h prior to the assay, GS4.3 cells were collected, counted, and plated in 96-well plates (Costar 3585) at 7500 cells/well in 100 μl standard maintenance medium (above) and incubated in the conditions above. To initiate the assay, culture medium was removed, cells were washed once with PBS (Gibco 10010-023) and 90 μl Assay Medium (DMEM, L-glutamine, NEAA, 10% HI FBS, no G418) was added. Inhibitors were made as a 10× stock in Assay Medium, (3-fold dilutions from 10 μM to 56 pM final concentration, final DMSO concentration 1%), 10 μl were added to duplicate wells, plates were rocked to mix, and incubated as above for 72 h.
An NPTII Elisa kit was obtained from AGDIA, Inc. (Compound direct ELISA test system for Neomycin Phosphotransferase II, PSP 73000/4800). Manufacturer's instructions were followed, with some modifications. 10×PEB-1 lysis buffer was made up to include 500 μM PMSF (Sigma P7626, 50 mM stock in isopropanol). After 72 h incubation, cells were washed once with PBS and 150 μl PEB-1 with PMSF was added per well. Plates were agitated vigorously for 15 minutes, room temperature, then frozen at −70° C. Plates were thawed, lysates were mixed thoroughly, and 100 μl were applied to an NPTII Elisa plate. A standard curve was made. Lysate from DMSO-treated control cells was pooled, serially diluted with PEB-1 with PMSF, and applied to duplicate wells of the ELISA plate, in a range of initial lysate amount of 150 ul-2.5 ul. In addition, 100 μl buffer alone was applied in duplicate as a blank. Plates were sealed and gently agitated at room temperature for 2 h. Following capture incubation, the plates were washed 5×300 μl with PBS-T (0.5% Tween-20, PBS-T was supplied in the ELISA kit). For detection, a 1× dilution of enzyme conjugate diluent MRS-2 (5×) was made in PBS-T, into which 1:100 dilutions of enzyme conjugates A and B were added, as per instructions. Plates were resealed, and incubated with agitation, covered, room temperature, for 2 h. The washing was then repeated and 100 μl of room temperature TMB substrate was added. After approximately 30 minutes incubation (room temperature, agitation, covered), the reaction was stopped with 50 μl 3M sulfuric acid. Plates were read at 450 nm on a Molecular Devices Versamax plate reader.
Inhibitor effect was expressed as a percentage of DMSO-treated control signal, and inhibition curves were calculated using a 4-parameter equation: y=A+((B−A)/(1+((C/x)^D))), where C is half-maximal activity or EC50.
On the technique in general: ELISA stands for enzyme-linked immunosorbent assay.
For the molecule `CC(C)(C)OC(=O)NC1CCCCC/C=C\[C@H]2C[C@@]2(C(=O)NS(=O)(=O)NCC(F)(F)F)NC(=O)C2CC(OC(=O)N3Cc4cccc(Cl)c4C3)CN2C1=O` (single isomer, unassigned) [Compound 226], the concentration for a half-maximal effect (EC50) was under 0.1 µM.

The test is the same for the next values; noted with them: Hepatitis C virus, Huh-7; Table 26; read-out: EC50.
In the case of `O=C(CCC(F)(F)F)N[C@H]1CCCCC/C=C\[C@@H]2C[C@@]2(C(=O)NS(=O)(=O)C2CC2)NC(=O)[C@@H]2CCCN2C1=O` [Compound 2139], the EC50 was under 1 µM.

For the next test, the target named is T1, full-length NS3/NS4A-2 (HCV NS3 protease) (Hepatitis C virus genotype 1a, UniProt P27958).
T1 construct: Recombinant E. coli or Baculovirus full-length NS3 was diluted to 3.33 μM with assay buffer; made in house; host or cells: E. coli or baculovirus (BV) expression system
T1 sequence (P27958 1027-1657): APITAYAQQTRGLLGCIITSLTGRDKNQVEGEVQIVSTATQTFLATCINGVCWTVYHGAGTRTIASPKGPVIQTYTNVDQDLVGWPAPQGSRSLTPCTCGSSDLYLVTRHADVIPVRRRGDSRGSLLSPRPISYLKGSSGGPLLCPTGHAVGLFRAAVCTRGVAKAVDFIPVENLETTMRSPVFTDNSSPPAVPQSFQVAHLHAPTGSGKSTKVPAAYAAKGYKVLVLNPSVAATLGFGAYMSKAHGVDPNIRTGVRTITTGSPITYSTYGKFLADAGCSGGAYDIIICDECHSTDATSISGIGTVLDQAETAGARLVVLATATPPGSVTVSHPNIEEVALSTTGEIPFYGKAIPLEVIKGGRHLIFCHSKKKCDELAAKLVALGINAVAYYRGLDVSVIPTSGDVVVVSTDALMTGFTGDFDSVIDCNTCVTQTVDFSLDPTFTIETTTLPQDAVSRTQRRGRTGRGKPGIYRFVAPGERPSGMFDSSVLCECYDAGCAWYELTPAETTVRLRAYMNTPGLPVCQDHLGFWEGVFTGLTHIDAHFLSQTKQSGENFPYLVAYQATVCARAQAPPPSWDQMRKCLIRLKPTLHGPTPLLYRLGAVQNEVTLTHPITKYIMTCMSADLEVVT
The test is described as follows: NS3-NS4 protease assay / NS3 inhibition assay (RETS1 substrate, fluorescence kinetic read). In kind it is biochemical. The settings on record: Table 22; read-out: NS3-NS4 IC50. An outline of the steps:
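Full-length NS3 from E. coli (2 nM in assay) or baculovirus (3 nM) was precomplexed with excess NS4A-2 peptide, then preincubated 10 min at room temperature with serially diluted compounds starting at 50 microM. Reaction was started with RETS1 substrate at 8 μM before addition and read kinetically for 30 min (ex 335/em 495 nm). Four-parameter IC50s were converted to Ki by Cheng-Prusoff using Km 2.03 μM (E. coli) or 1.74 μM (BV).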
For `COc1ccccc1NC(=O)[C@@]12C[C@H]1/C=C\CCCCC[C@H](NC(=O)OC(C)(C)C)C(=O)N1CCC[C@H]1C(=O)N2` [Compound 2313], the IC50 is under 1 µM.
Same read-out and setting: under `CCCNC(=O)[C@@]12C[C@H]1/C=C\CCCCC[C@H](NC(=O)OC(C)(C)C)C(=O)N1CCC[C@H]1C(=O)N2` [Compound 2319] stands under 0.1 µM; under `CC(C)CNC(=O)[C@@]12C[C@H]1/C=C\CCCCC[C@H](NC(=O)OC(C)(C)C)C(=O)N1CCC[C@H]1C(=O)N2` [Compound 2314], under 1 µM.

The test is the same for the next values; noted with them: recombinant E. coli or Baculovirus full-length NS3 with NS4A-2; read-out: NS3-NS4 IC50.
`CCOC(=O)[C@@]12C[C@H]1/C=C\CCCCC[C@H](NC(=O)OC(C)(C)C)C(=O)N1C[C@H](OC(=O)N3Cc4ccc(OCCNC(C)C)cc4C3)C[C@H]1C(=O)N2` [Compound 125]: the IC50 is under 10 µM.
On the same count and under the same terms, in the case of `CCOC(=O)[C@@]12C[C@H]1/C=C\CCCCC[C@H](NC(=O)OC(C)(C)C)C(=O)N1C[C@H](OC(=O)N3Cc4ccc(OCCN(C)C)cc4C3)C[C@H]1C(=O)N2` [Compound 127] it was under 10 µM; in that of `CC(C)(C)OC(=O)N[C@H]1CCCCC/C=C\[C@@H]2C[C@@]2(C(=O)NS(=O)(=O)c2cc3ccccc3s2)NC(=O)[C@@H]2CCCN2C1=O` [Compound 307], under 10 µM.
As to `COc1cccc(S(=O)(=O)NC(=O)[C@@]23C[C@H]2/C=C\CCCCC[C@H](NC(=O)OC(C)(C)C)C(=O)N2CCC[C@H]2C(=O)N3)c1` [Compound 2116], the half-inhibitory concentration (IC50) is under 10 µM.
On the same count and under the same terms, under `CC(C)(C)OC(=O)N[C@H]1CCCCC/C=C\[C@@H]2C[C@@]2(C(=O)NS(=O)(=O)NCCc2ccccc2Cl)NC(=O)[C@@H]2CCCN2C1=O` [Compound 402] stands over 10 µM; under `CC(C)(C)OC(=O)N[C@H]1CCCCC/C=C\[C@@H]2C[C@@]2(C(=O)NS(=O)(=O)NC2(C#N)CC2)NC(=O)[C@@H]2CCCN2C1=O` [Compound 2212], under 1 µM; under `CC(C)(C)OC(=O)N[C@H]1CCCCC/C=C\[C@@H]2C[C@@]2(C(=O)N[S@@+]([O-])C(C)(C)C)NC(=O)[C@@H]2CCCN2C1=O` [Compound 2401, (1S,4R,6S,14S)tert-Butyl 4-((S)-2-methylpropane-2-sulfinyl)-aminocarbonyl-2,15-dioxo-3,16-diaza-tricyclo[14.3.0.0^4,6]nonadec-7-ene-14-yl carbamate], under 0.1 µM.
On the same count and under the same terms, in the case of `CS(=O)(=O)NC(=O)[C@@]12C[C@H]1/C=C\CCCCC[C@H](NC(=O)OC1CCCC1)C(=O)N1Cc3ccc(Oc4cccc(Cl)c4)cc3CC1C(=O)N2` (stereo partly drawn) [Compound 2003, Cyclopentyl (1aS,9S,19aR,Z)-15-(3-chlorophenoxy)-19a-(methylsulfonylcarbamoyl)-10,18-dioxo-1a,4,5,6,7,8,9,10,12,17,17a,18,19,19a-tetradecahydro-1H-11,14-diaza-bicyclo[13.1.0]hexadeca-1(15), 2-dieno[11,12-b]isoquinolin-9-ylcarbamate] it was under 10 µM; in that of `C[C@H](NS(=O)(=O)NC(=O)[C@@]12C[C@H]1/C=C\CCCCC[C@H](NC(=O)OC(C)(C)C)C(=O)N1CCC[C@H]1C(=O)N2)c1ccccc1` [Compound 416], under 10 µM; in that of `CC(C)(C)OC(=O)N[C@H]1CCCCC/C=C\[C@@H]2C[C@@]2(C(=O)NCc2ccccn2)NC(=O)[C@@H]2CCCN2C1=O` [Compound 500], over 10 µM.
On the same count and under the same terms, under `O=C(N[C@H]1CCCCC/C=C\[C@@H]2C[C@@]2(C(=O)NS(=O)(=O)Nc2ccc(Cl)cc2)NC(=O)[C@@H]2CCCN2C1=O)C1CC1` [Compound 428] stands under 10 µM.
Turning to `CN(C)S(=O)(=O)NC(=O)[C@@]12C[C@H]1/C=C\CCCCC[C@H](NC(=O)OC(C)(C)C)C(=O)N1CCC[C@H]1C(=O)N2` [Compound 2202], the IC50 is under 10 µM.
On the same count and under the same terms, in the case of `COc1ccccc1CCNS(=O)(=O)NC(=O)[C@@]12C[C@H]1/C=C\CCCCC[C@H](NC(=O)OC(C)(C)C)C(=O)N1CCC[C@H]1C(=O)N2` [Compound 415] it was over 10 µM; in that of `CC(C)(C)OC(=O)N[C@H]1CCCCC/C=C\[C@@H]2C[C@@]2(C(=O)NS(=O)(=O)Cc2ccc(Cl)cc2)NC(=O)[C@@H]2CCCN2C1=O` [Compound 2119], under 1 µM.
Still for that read-out and setting: under `CC(C)(C)OC(=O)N[C@H]1CCCCC/C=C\[C@@H]2C[C@@]2(C(=O)NCc2ccncc2)NC(=O)[C@@H]2CCCN2C1=O` [Compound 502] stands over 10 µM; under `CCN(C)S(=O)(=O)NC(=O)[C@@]12C[C@H]1/C=C\CCCCC[C@H](NC(=O)OC(C)(C)C)C(=O)N1CCC[C@H]1C(=O)N2` [Compound 400], under 10 µM; under `CN1CCC(N(C2CC2)S(=O)(=O)NC(=O)[C@@]23C[C@H]2/C=C\CCCCC[C@H](NC(=O)OC(C)(C)C)C(=O)N2CCC[C@H]2C(=O)N3)CC1` [Compound 2211], under 1 µM.
On the same count and under the same terms, under `Cc1cc(Cl)cc(Cl)c1S(=O)(=O)NC(=O)[C@@]12C[C@H]1/C=C\CCCCC[C@H](NC(=O)OC(C)(C)C)C(=O)N1CCC[C@H]1C(=O)N2` [Compound 2123] stands under 1 µM; under `CC(C)(C)OC(=O)N[C@H]1CCCCC/C=C\[C@@H]2C[C@@]2(C(=O)NS(=O)(=O)CCc2ccccc2)NC(=O)[C@@H]2CCCN2C1=O` [Compound 2127], under 10 µM.
For the molecule `Cc1ccc([S@+]([O-])NC(=O)[C@@]23C[C@H]2/C=C\CCCCC[C@H](NC(=O)OC(C)(C)C)C(=O)N2CCC[C@H]2C(=O)N3)cc1` [Compound 2402], the IC50 was under 0.1 µM.
Same read-out and setting: under `CCOC(=O)[C@@]12C[C@H]1/C=C\CCCCC[C@H](NC(=O)OC1CCCC1)C(=O)N1C[C@H](OC(=O)N3Cc4ccc(OCCN5CCOCC5)cc4C3)C[C@H]1C(=O)N2` [Compound 129] stands under 10 µM; under `CN1CCN(S(=O)(=O)NC(=O)[C@@]23C[C@H]2/C=C\CCCCC[C@H](NC(=O)OC(C)(C)C)C(=O)N2CCC[C@H]2C(=O)N3)CC1` [Compound 2208], under 1 µM; under `CC(C)(C)OC(=O)N[C@H]1CCCCC/C=C\[C@@H]2C[C@@]2(C(=O)NS(=O)(=O)N2CCc3ccccc3C2)NC(=O)[C@@H]2CCCN2C1=O` [Compound 408], under 10 µM.
Still for that read-out and setting: in the case of `CC(C)(C)OC(=O)N[C@H]1CCCCC/C=C\[C@@H]2C[C@@]2(C(=O)NS(=O)(=O)Nc2cccc(Cl)c2)NC(=O)[C@@H]2CCCN2C1=O` [Compound 2239] it was under 1 µM; in that of `COc1cccc(S(=O)(=O)NC(=O)[C@@]23C[C@H]2/C=C\CCCCC[C@H](NC(=O)OC2CCCC2)C(=O)N2C[C@H](OC(=O)N4CCc5ccccc5C4)C[C@H]2C(=O)N3)c1` [Compound 188], under 0.1 µM.
Same read-out and setting: under `CC(C)(C)CC(=O)N[C@H]1CCCCC/C=C\[C@@H]2C[C@@]2(C(=O)NS(=O)(=O)C2CC2)NC(=O)C2CCCN2C1=O` (stereo partly shown) [Compound 2141] stands under 10 µM.

For the origin of these results see patent publication US7829665B2 (priority 2005, dated 2010).
